Results as given in ChEMBL document CHEMBL1201862, “PubChem BioAssay data set” (2004).
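How tested: cells in 96-well plates exposed to compound for 48 hours at five concentrations. GI50 marks 50% less growth.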 The source made the active and inactive calls. Rule as the data show it: active = GI50 up to about 1.1 µM and inactive = higher.

Key:
Assay in all cases: NCI tumour cell line growth inhibition, 48 h
Malme-3M = tested on: Malme-3M
CAKI-1 = tested on: CAKI-1
RPMI-8226 = tested on: RPMI-8226
COLO 205 = tested on: COLO 205
NCI-H226 = tested on: NCI-H226
HOP-62 = tested on: HOP-62
ACHN = tested on: ACHN
HOP-18 = tested on: HOP-18
786-0 = tested on: 786-0
K562 = tested on: K562
KM12 = tested on: KM12
SK-OV-3 = tested on: SK-OV-3
M14 = tested on: M14
KM-20L2 = tested on: KM-20L2
DLD-1 = tested on: DLD-1
UACC-62 = tested on: UACC-62
HT-29 = tested on: HT-29
SN12C = tested on: SN12C
SK-MEL-2 = tested on: SK-MEL-2
SF-295 = tested on: SF-295
DMS-114 = tested on: DMS-114
OVCAR-4 = tested on: OVCAR-4
LOX IMVI = tested on: LOX IMVI
DMS-273 = tested on: DMS-273
SK-MEL-5 = tested on: SK-MEL-5
HCC 2998 = tested on: HCC 2998
UO-31 = tested on: UO-31
TK-10 = tested on: TK-10
SNB-19 = tested on: SNB-19
UACC-257 = tested on: UACC-257
HCT-15 = tested on: HCT-15
HL-60 = tested on: HL-60
OVCAR-5 = tested on: OVCAR-5
EKVX = tested on: EKVX
SK-MEL-28 = tested on: SK-MEL-28
A498 = tested on: A498
SNB-75 = tested on: SNB-75
LXFL 529 = tested on: LXFL 529
IGROV-1 = tested on: IGROV-1
M19-MEL = tested on: M19-MEL
A549 = tested on: A549
OVCAR-3 = tested on: OVCAR-3
CCRF-CEM = tested on: CCRF-CEM
SNB-78 = tested on: SNB-78
NCI-H460 = tested on: NCI-H460
OVCAR-8 = tested on: OVCAR-8
NCI-H23 = tested on: NCI-H23
SF-268 = tested on: SF-268
NCI-H522 = tested on: NCI-H522
MOLT-4 = tested on: MOLT-4
U-251 = tested on: U-251
HCT-116 = tested on: HCT-116
SW-620 = tested on: SW-620
SF-539 = tested on: SF-539
XF498 = tested on: XF498
SR = tested on: SR
RXF 393 = tested on: RXF 393
Hs-578T = tested on: Hs-578T
T47D = tested on: T47D
MCF7 = tested on: MCF7
MDA-N = tested on: MDA-N
BT-549 = tested on: BT-549
HOP-92 = tested on: HOP-92
PC-3 = tested on: PC-3
DU-145 = tested on: DU-145
MDA-MB-231 = tested on: MDA-MB-231
NCI/ADR-RES = tested on: NCI/ADR-RES
MDA-MB-435 = tested on: MDA-MB-435

O=c1cccccc1NCCOCCNc1cccccc1=O
GI50 (Malme-3M): > 100 µM (inactive) | GI50 (CAKI-1): > 100 µM (inactive) | GI50 (RPMI-8226): > 100 µM (inactive) | GI50 (COLO 205): > 100 µM (inactive) | GI50 (NCI-H226): > 100 µM (inactive) | GI50 (HOP-62): > 100 µM (inactive) | GI50 (ACHN): > 100 µM (inactive) | GI50 (HOP-18): 29 µM (inactive) | GI50 (786-0): > 100 µM (inactive) | GI50 (K562): > 100 µM (inactive) | GI50 (KM12): > 100 µM (inactive) | GI50 (SK-OV-3): > 100 µM (inactive) | GI50 (M14): > 100 µM (inactive) | GI50 (KM-20L2): > 100 µM (inactive) | GI50 (DLD-1): > 100 µM (inactive) | GI50 (UACC-62): > 100 µM (inactive) | GI50 (HT-29): > 100 µM (inactive) | GI50 (SN12C): > 100 µM (inactive) | GI50 (SK-MEL-2): > 100 µM (inactive) | GI50 (SF-295): > 100 µM (inactive) | GI50 (DMS-114): > 100 µM (inactive) | GI50 (OVCAR-4): > 100 µM (inactive) | GI50 (LOX IMVI): > 100 µM (inactive) | GI50 (DMS-273): > 100 µM (inactive) | GI50 (SK-MEL-5): > 100 µM (inactive) | GI50 (HCC 2998): > 100 µM (inactive) | GI50 (UO-31): > 100 µM (inactive) | GI50 (TK-10): > 100 µM (inactive) | GI50 (SNB-19): > 100 µM (inactive) | GI50 (UACC-257): > 100 µM (inactive) | GI50 (HCT-15): > 100 µM | GI50 (HL-60): > 100 µM (inactive) | GI50 (OVCAR-5): > 100 µM (inactive) | GI50 (EKVX): > 100 µM (inactive) | GI50 (SK-MEL-28): > 100 µM (inactive) | GI50 (A498): > 100 µM (inactive) | GI50 (SNB-75): 16.9 µM (inactive) | GI50 (LXFL 529): > 100 µM (inactive) | GI50 (IGROV-1): > 100 µM (inactive) | GI50 (M19-MEL): > 100 µM (inactive) | GI50 (A549): > 100 µM (inactive) | GI50 (OVCAR-3): > 100 µM (inactive) | GI50 (CCRF-CEM): > 100 µM (inactive) | GI50 (SNB-78): > 100 µM (inactive) | GI50 (NCI-H460): > 100 µM (inactive) | GI50 (OVCAR-8): > 100 µM (inactive) | GI50 (NCI-H23): > 100 µM (inactive) | GI50 (SF-268): > 100 µM (inactive) | GI50 (NCI-H522): > 100 µM (inactive) | GI50 (MOLT-4): > 100 µM (inactive) | GI50 (U-251): > 100 µM (inactive) | GI50 (HCT-116): > 100 µM (inactive) | GI50 (SW-620): > 100 µM (inactive)

Cc1nc2c(n1Cc1ccc(F)cc1)C(=O)c1ccccc1C2=O
GI50 (Malme-3M): 8.89 µM (inactive) | GI50 (SF-539): 6.98 µM (inactive) | GI50 (COLO 205): 18.9 µM (inactive) | GI50 (NCI-H226): 32.5 µM (inactive) | GI50 (HOP-62): 27.7 µM (inactive) | GI50 (ACHN): 28.9 µM (inactive) | GI50 (786-0): 13.1 µM (inactive) | GI50 (K562): 5.61 µM (inactive) | GI50 (KM12): 42.2 µM (inactive) | GI50 (SK-OV-3): > 100 µM (inactive) | GI50 (M14): > 100 µM (inactive) | GI50 (KM-20L2): 38.5 µM (inactive) | GI50 (UACC-62): 5.25 µM (inactive) | GI50 (HT-29): 9.44 µM (inactive) | GI50 (SN12C): 54 µM (inactive) | GI50 (SK-MEL-2): 34.1 µM (inactive) | GI50 (SF-295): 44.2 µM (inactive) | GI50 (OVCAR-4): 31.1 µM (inactive) | GI50 (LOX IMVI): 7.18 µM (inactive) | GI50 (DMS-273): 6.43 µM (inactive) | GI50 (SK-MEL-5): 10.3 µM (inactive) | GI50 (HCC 2998): 87.3 µM (inactive) | GI50 (UO-31): > 100 µM (inactive) | GI50 (TK-10): > 100 µM (inactive) | GI50 (SNB-19): > 100 µM (inactive) | GI50 (UACC-257): 26.6 µM (inactive) | GI50 (HCT-15): 4.29 µM | GI50 (HL-60): 5.48 µM (inactive) | GI50 (EKVX): 71 µM (inactive) | GI50 (SK-MEL-28): > 100 µM (inactive) | GI50 (SNB-75): 36.6 µM (inactive) | GI50 (LXFL 529): 13.5 µM (inactive) | GI50 (IGROV-1): 25.8 µM (inactive) | GI50 (M19-MEL): 3.62 µM (inactive) | GI50 (A549): 36.5 µM (inactive) | GI50 (XF498): 29.9 µM (inactive) | GI50 (OVCAR-3): 15.1 µM (inactive) | GI50 (CCRF-CEM): 10.5 µM (inactive) | GI50 (SNB-78): > 100 µM (inactive) | GI50 (SR): 4.29 µM (inactive) | GI50 (NCI-H460): 4.07 µM (inactive) | GI50 (OVCAR-8): 35.4 µM (inactive) | GI50 (NCI-H23): 13.2 µM (inactive) | GI50 (SF-268): 4.6 µM (inactive) | GI50 (NCI-H522): 10.8 µM (inactive) | GI50 (MOLT-4): 5.4 µM (inactive) | GI50 (U-251): 6.56 µM (inactive) | GI50 (RXF 393): 14.9 µM (inactive) | GI50 (HCT-116): 6.89 µM (inactive) | GI50 (SW-620): 41.3 µM (inactive)

COc1cc(/C=C2/C(=O)N(C(=O)c3ccccc3O)N=C2C)cc(OC)c1OC
GI50 (Malme-3M): 8.17 µM (inactive) | GI50 (SF-539): 0.839 µM (active) | GI50 (RPMI-8226): > 22.2 µM (inactive) | GI50 (COLO 205): 34.4 µM (inactive) | GI50 (NCI-H226): 6.21 µM (inactive) | GI50 (HOP-62): 1.29 µM (inactive) | GI50 (ACHN): 0.92 µM (active) | GI50 (786-0): 2.25 µM (inactive) | GI50 (K562): 0.393 µM (active) | GI50 (KM12): 0.455 µM (active) | GI50 (SK-OV-3): 2.47 µM (inactive) | GI50 (Hs-578T): 0.822 µM (active) | GI50 (M14): 7.38 µM (inactive) | GI50 (KM-20L2): 45.7 µM (inactive) | GI50 (T47D): 1.12 µM (active) | GI50 (DLD-1): 0.484 µM (active) | GI50 (MCF7): 0.753 µM (active) | GI50 (MDA-N): 1.02 µM (active) | GI50 (UACC-62): 0.405 µM (active) | GI50 (HT-29): 34.4 µM (inactive) | GI50 (SN12C): 3.1 µM (inactive) | GI50 (SK-MEL-2): 1.44 µM (inactive) | GI50 (SF-295): 1.16 µM (inactive) | GI50 (DMS-114): 0.682 µM (active) | GI50 (OVCAR-4): 2.73 µM (inactive) | GI50 (BT-549): 0.741 µM (active) | GI50 (LOX IMVI): 2.09 µM (inactive) | GI50 (SK-MEL-5): 2.88 µM (inactive) | GI50 (HCC 2998): 11.6 µM (inactive) | GI50 (HOP-92): 1.07 µM (active) | GI50 (UO-31): 0.558 µM (active) | GI50 (TK-10): 9.79 µM (inactive) | GI50 (SNB-19): 1.44 µM (inactive) | GI50 (UACC-257): 4.9 µM (inactive) | GI50 (HCT-15): 3.17 µM | GI50 (PC-3): 6.93 µM (inactive) | GI50 (HL-60): 2.9 µM (inactive) | GI50 (OVCAR-5): 11.7 µM (inactive) | GI50 (EKVX): 5.5 µM (inactive) | GI50 (SK-MEL-28): 53.7 µM (inactive) | GI50 (A498): 0.473 µM (active) | GI50 (SNB-75): 1.84 µM (inactive) | GI50 (LXFL 529): 0.555 µM (active) | GI50 (IGROV-1): 0.69 µM (active) | GI50 (M19-MEL): 0.695 µM (active) | GI50 (A549): 0.439 µM (active) | GI50 (XF498): 1.9 µM (inactive) | GI50 (OVCAR-3): 1.53 µM (inactive) | GI50 (CCRF-CEM): 1.77 µM (inactive) | GI50 (SNB-78): 0.277 µM (active) | GI50 (NCI-H460): 1.43 µM (inactive) | GI50 (OVCAR-8): 1.67 µM (inactive) | GI50 (DU-145): 2.44 µM (inactive) | GI50 (NCI-H23): 0.653 µM (active) | GI50 (SF-268): 8.59 µM (inactive) | GI50 (MDA-MB-231): 23.5 µM (inactive) | GI50 (NCI-H522): 3.83 µM (inactive) | GI50 (MOLT-4): 0.887 µM (active) | GI50 (NCI/ADR-RES): 4.29 µM (inactive) | GI50 (U-251): 1.2 µM (inactive) | GI50 (RXF 393): 0.192 µM (active) | GI50 (MDA-MB-435): 0.863 µM (active) | GI50 (HCT-116): 0.358 µM (active) | GI50 (SW-620): 6.22 µM (inactive)
